Results reported in patent US4347254A, “Tricyclic cage compounds, their synthesis and use as antiviral agents” (Sumitomo Chemical Company, Limited, priority 1978, dated 1982).
Where “and” joins values, the source holds several entries; their conditions need not be identical. Equal values may be shown once. Read-outs that look alike come from different tables or passages of the source.

Key:
[1] = Acute toxicity: mortality after subcutaneous injection; assay type: in vivo, male dd-strain mice; set-up: key to appearance of hyperactivity / clonic convulsion: ±: appearance of hyperactivity; +: appearance of clonic convulsion; settings: mice
Method: Six male dd-strain mice, weighing 25±3 g, were used in each group. Test drugs were injected subcutaneously (0.2 ml/10 g).
Mortality at the 3rd day after subcutaneous injection:-
^(*1) Number of deaths/Number of animals used.

[2] = test system: catalepsy induced by haloperidol; assay: Effects on the catalepsy induced by haloperidol (anti-catalepsy activity); assay type: in vivo, male dd-strain mice; settings: for Number of showing anti-catalepty activity/Number of total animal: 0.5 hour after test drug, haloperidol 7 mg/kg s.c., hydrochloride
Method: Pharmcol., 22, 546-547 (1970)" or "J. May et al., Psychopharmcol., 24, 296-307 (1972)".
Effects on the catalepsy induced by haloperidol:
Six male dd-strain mice, weighing 25±3 g, were used in each group. Test drugs were injected intraperitoneally or subcutaneously 3.5 hours after the injection of haloperidol (7 mg/kg, s.c.).
The catalepsy was measured at 0.5 hour after injection of test drugs according to the method of Wirth et al. with slight modification [cf. Wirth, R., Gosswald, R., Horlein, V., Risse, K. H. and Kreiskott, H. Archs int. Pharmacodyn., Ther., 115, 1-31 (1958)].

[3] = test system: Influenza A/PR/8/34 (HO,Nl) strain; assay: microbe, parasite or virus in culture; assay type: cell-based, Influenza A virus; settings: for minimal effective concentration: Influenza A virus, PR/8, 72 h, 34° C., 3 days, read-out: MEC (minimum effective concentration); for Chemotherapeutic index (MCC/MEC): 4320 min
[4] = Cytotoxicity in host cells by microscopic examination and retardation of cell growth rate; assay type: cell-based; settings: dog; MDCK cells; hydrochloride; read-out: MCC (minimum cytotoxic concentration)
Method: Virus (Influenza A/PR/8/34 (HO,Nl) strain) and cell culture (MDCK cells) were used in this study and were grown in Earle-based Eagle-MEM containing 2.5 mg/ml of NaHCO3 and 10% fetal calf serum. Maintenance medium was Eagle's MEM containing 2.5 mg/ml NaHCO3, 0.1% bovine serum albumin and 20 μg/ml Tnypsin.
After washing MDCK Cell monolayers with PBS(-), maintenance medium containing 10^3 TCID50 of virus the drug was added to each culture tube and these tubes were then incubated at 34° C. for 3 days.
Antiviral effects and cytotoxicities of the test compounds were tested against influenza virus by the tube dilution assay.
Cytotoxicity was determined by microscopic examination and retardation of cell growth rate of host cell, and represented by minimum cytotoxicic concentration (MCC, μg/ml).

[5] = test system: Influenza A/PR/8/34 (HO,Nl) strain; assay type: in vivo, Influenza A virus; ICR male mice; settings: for LLS (lung lesion score): score 0-5, control 4.7; for efficacy compared with amantadine: as indicated in Table III
[6] = test system: central nervous system (CNS); settings: known drug; cited from earlier work
[7] = 1000 mg/kg s.c., hydrochloride (29-1: not hydrochloride)
[8] = hydrochloride (29-1: not hydrochloride)

| SMILES | Number of showing anti-catalepty activity/Number of total animal ([2]; 500 mg/kg s.c.) | minimal effective concentration ([3]; MDCK cells, hydrochloride) [µg/mL] | Chemotherapeutic index (MCC/MEC) ([3]; MDCK cells, hydrochloride) | MCC at 72 h [4] [µg/mL] | also measured |
| --- | --- | --- | --- | --- | --- |
| N[C@@H]1[C@H]2CC[C@H]3[C@@H]1CO[C@H]3C2 (relative stereo) [Compound No. 12-4, 5-Oxa-endo-2-amino-isotwistane] | 0/6 | 50 | 2 | 100 | Mortality rate at the 3rd day after subcutaneous injection (Number of deaths/Number of animals used) ([1]; 2000 mg/kg s.c., hydrochloride): 0/6; appearance of hyperactivity / clonic convulsion ([1]; 2000 mg/kg s.c., hydrochloride): ± |
| N[C@H]1[C@H]2CC[C@H]3[C@@H]1CO[C@H]3C2 (relative stereo) [Compound No. 12-9, 5-Oxa-exo-2-amino-isotwistane] | – | 50 | 2 | 100 | – |
| CN[C@@H]1[C@H]2CC[C@H]3[C@@H]1CO[C@H]3C2 (relative stereo) [Compound No. 18-3, 5-Oxa-endo-2-N-methylamino-isotwistane] | 1/6 | 50 | > 4 | > 200 | appearance of hyperactivity / clonic convulsion ([1]; 1000 mg/kg s.c., hydrochloride): ±; Mortality rate at the 3rd day after subcutaneous injection (Number of deaths/Number of animals used) [1, 7]: 0/6 |
| NC[C@@H]1[C@H]2CC[C@H]3[C@@H]1CO[C@H]3C2 (relative stereo) [Compound No. 25-3, 5-Oxa-endo-2-aminomethyl-isotwistane] | 0/6 | 25 | 4 | 100 | Mortality rate at the 3rd day after subcutaneous injection (Number of deaths/Number of animals used) [1, 7]: 0/6 |
| NC[C@H]1[C@H]2CC[C@H]3[C@@H]1CO[C@H]3C2 (relative stereo) [Compound No. 67-1, exo-2-aminomethyl-5-oxa-isotwistane] | – | 25 | 4 | 100 | – |
| NC12CC3CC(CC(C3)C1)C2 [Amantadine, reference compound] | – | 12.5 | – | 12.5 | Mortality rate at the 3rd day after subcutaneous injection (Number of deaths/Number of animals used) ([1]; 300 mg/kg s.c., hydrochloride): 6/6; Number of showing anti-catalepty activity/Number of total animal ([2]; 50 mg/kg s.c.): 3/6 and 2/6; antagonism of the catalepsy (in words), amantadine ([2]; at 50 mg/kg): antagonizes the catalepsy at 50 mg/kg; LLS (lung lesion score) ([5]; hydrochloride): 4.3; Chemotherapeutic index (MCC/MEC) ([3]; mdck): 1; CNS-effects (in words), amantadine [6]: strong effects on a central nervous system (CNS) |
| NC12COC3CC(CCC31)C2 (stereo not drawn) [Compound No. 12-3, 5-Oxa-3-amino-isotwistane] | 2/6 | 50 | 2 | 100 | Mortality rate at the 3rd day after subcutaneous injection (Number of deaths/Number of animals used) ([1]; 705 mg/kg s.c., hydrochloride): 0/6; appearance of hyperactivity / clonic convulsion ([1]; 705 mg/kg s.c., hydrochloride): ±; LLS (lung lesion score) [5, 8]: 3.6; efficacy compared with amantadine [5]: comparable to that of amantadine |
| NCC1C2CCC3C(COC13)C2 (stereo not drawn) [Compound No. 12-10] | – | 25 | 4 | 100 | – |
| CNC12COC3CC(CCC31)C2 (stereo not drawn) [Compound No. 18-2, 5-Oxa-3-N-methylamino-isotwistane] | – | 50 | > 4 | > 200 | Mortality rate at the 3rd day after subcutaneous injection (Number of deaths/Number of animals used) ([1]; 500 mg/kg s.c., hydrochloride): 0/6; appearance of hyperactivity / clonic convulsion ([1]; 500 mg/kg s.c., hydrochloride): ±; Number of showing anti-catalepty activity/Number of total animal ([2]; 250 mg/kg s.c.): 3/6 |
| NCC12COC3CC(CCC31)C2 (stereo not drawn) [Compound No. 27-2, 5-Oxa-3-aminomethyl-isotwistane] | 1/6 | 25 | 8 | 200 | Mortality rate at the 3rd day after subcutaneous injection (Number of deaths/Number of animals used) ([1]; 1190 mg/kg s.c., hydrochloride): 0/6; appearance of hyperactivity / clonic convulsion ([1]; 1190 mg/kg s.c., hydrochloride): ±; times as safe as amantadine (by chemotherapeutic index) ([3]; compared with amantadine): 8 times |
| NCCCC12COC3CC(CCC31)C2 (stereo not drawn) [Compound No. 27-4, 5-Oxa-3-(ω-amino-n-propyl)-isotwistane] | – | 25 | 4 | 100 | Mortality rate at the 3rd day after subcutaneous injection (Number of deaths/Number of animals used) ([1]; 250 mg/kg s.c., hydrochloride): 1/6; Mortality rate at the 3rd day after subcutaneous injection (Number of deaths/Number of animals used) ([1]; 500 mg/kg s.c., hydrochloride): 6/6 |
| COC(=O)C12COC3CC(CC31)C2 (stereo not drawn) [Compound No. 29-1, 5-oxa-3-methoxycarbonyl-brendane] | – | – | – | – | Mortality rate at the 3rd day after subcutaneous injection (Number of deaths/Number of animals used) [1, 7]: 0/6; LLS (lung lesion score) [5, 8]: 4.3; efficacy compared with amantadine [5]: comparable to that of amantadine |
| CN(C)CC12COC3CC(CCC31)C2 (stereo not drawn) [Compound No. 41-5, 5-Oxa-3-N,N-dimethylaminomethyl-isotwistane] | – | 50 | 2 | 100 | – |
| CC(N)C12COC3CC(CCC31)C2 (stereo not drawn) [Compound No. 44-1, 5-oxa-3-(α-aminoethyl)-isotwistane] | – | 25 | 2 | 50 | appearance of hyperactivity / clonic convulsion ([1]; 1000 mg/kg s.c., hydrochloride): ±; Mortality rate at the 3rd day after subcutaneous injection (Number of deaths/Number of animals used) [1, 7]: 0/6; Number of showing anti-catalepty activity/Number of total animal ([2]; 250 mg/kg s.c.): 1/6 |
| NC1C2CC3COC1C3C2 (stereo not drawn) [Compound No. 44-3, 2-Amino-4-oxa-brendane] | – | 50 | 2 | 100 | – |
| NC1C2CCC3C(COC13)C2 (stereo not drawn) [Compound No. 44-4, 2-Amino-4-oxa-isotwistane] | 0/6 | 100 | 1 | 100 | Mortality rate at the 3rd day after subcutaneous injection (Number of deaths/Number of animals used) [1, 7]: 0/6 |
| NCC12CSC3CC(CC31)C2 (stereo not drawn) [Compound No. 49-1, 5-thia-3-aminomethyl-brendane] | – | 25 | 2 | 50 | Mortality rate at the 3rd day after subcutaneous injection (Number of deaths/Number of animals used) ([1]; 250 mg/kg s.c., hydrochloride): 0/6; appearance of hyperactivity / clonic convulsion ([1]; 250 mg/kg s.c., hydrochloride): +; Number of showing anti-catalepty activity/Number of total animal ([2]; 125 mg/kg s.c.): 1/6 |
| NCC12CSC3CC(CCC31)C2 (stereo not drawn) [Compound No. 53-1] | – | 12.5 | 2 | 25 | Mortality rate at the 3rd day after subcutaneous injection (Number of deaths/Number of animals used) ([1]; 500 mg/kg s.c., hydrochloride): 3/6 |
